This is an account of results in US11213567B2, “ZAG-derived peptide and use thereof” (L&C Bio Co., LTD., priority 2017, dated 2022).

For one assay, the system named is IgE. In words: Atopic dermatitis efficacy test using B lymphocytes (RPMI 1788): IgE released after LPS, ELISA. The arrangement: key: •: have statistical significance, determining as effective, compared with the positive control. It is filed as cell-based, human. Conditions: Table 3, 1 μg/mL for 24 hours, then LPS 0.1 μg/mL 24 hours, vs stimulator only. As to the method: (§1) To select an amino acid sequence corresponding to a key active site of ZAG having efficacy in the alleviation of atopic symptoms from 18 peptide candidate groups, an atopic dermatitis efficacy test was performed. Five types of immune-related cells were treated with ZAG peptide candidate groups (Z1-Z18, SEQ ID NOs: 1 to 18, respectively) and the ZAG protein (Z0, SEQ ID NOs: 19) at a concentration of 1 μg/mL for 24 hours, and then treated with a stimulator suitable for each cell line for the listed time to confirm an immune response. The experiment was performed with a group treated with only a stimulator as a positive control experimental group, and a group treated with only a vehicle without a stimulator as a negative control experimental group (Table 2: Efficacy test method for atopic dermatitis). An inflammatory response-related enzyme used as a stimulator is produced by immune cells, and histamine initiates an inflammatory response. The immune cells migrating to a damaged region release cytokines such as tumor necrosis factor-α (TNF-α) and interleukin-6 (IL-6) to directly lyse foreign invasive substances or collect other immune cells to initiate an inflammatory response. An efficacy test using inflammation-inducing materials, interferon-γ and skin inflammation-related factor CCL-17/thymus- and activation-regulated chemokine (TARC) was also performed to confirm an immune response.
B lymphocytes (RPMI 1788) were treated with 0.1 μg/mL of LPS as a stimulator for 24 hours, and a concentration of IgE released in a cell culture medium was confirmed by ELISA assay.
(§2) Various types of immune cells were treated with each of Z20mer-1, Z20mer-2, Z20mer-3, Z15mer-1, Z15mer-2, Z15mer-3 and Z15mer-4 at a concentration of 1 μg/mL for 24 hours, and then treated with a stimulator suitable for each cell line for the listed time to confirm an immune response. The atopic dermatitis efficacy test method was performed by the same method as described in Example 1 and Table 2.
(§3) The experiment was performed with experimental groups: 1) negative control: vehicle-treated group (Neg), 2) positive control: a group treated with only a stimulator (Pos), and 3) experimental group: groups treated with a stimulator and ZAG3 or a ZAG3-derived oligopeptide (Z20mer-1, Z20mer-2, Z20mer-3, Z15mer-1, Z15mer-2, Z15mer-3 or Z15mer-4). Concentrations were measured from cell culture by ELISA.
B lymphocytes (RPMI 1788) were treated with 0.1 μg/mL of LPS as a stimulator for 24 hours, and then a concentration of IgE released in a cell culture medium was confirmed by ELISA assay. As compared with the positive control (Pos), in all of the oligopeptide-treated groups, IgE was reduced (FIG. 2D).
“Z12: ZAG protein-derived peptide, SEQ ID NO. 12: PFDPAAQITKQKWEAEPVYVQRAKAYLEEE (ZAG protein-derived peptide)”: the “B lymphocyte (human) IgE” value was “•”.
The same measure, in the same setting: next, “Z13: ZAG protein-derived peptide, SEQ ID NO. 13: CPATLRKYLKYSKNILDRQDPPSVVVTSHQ (ZAG protein-derived peptide)”: “•”.
As to “Z16: ZAG protein-derived peptide, SEQ ID NO. 16: APGEKKKLKCLAYDFYPGKIDVHWTRAGEV (ZAG protein-derived peptide)”, the “B lymphocyte (human) IgE” value is “•”.
For the substance “Z17: ZAG protein-derived peptide, SEQ ID NO. 17: QEPELRGDVLHNGNGTYQSWVVVAVPPQDT (ZAG protein-derived peptide)”, the “B lymphocyte (human) IgE” value is “•”.
For “Z18: ZAG protein-derived peptide, SEQ ID NO. 18: AVPPQDTAPYSCHVQHSSLAQPLVVPWEAS (ZAG protein-derived peptide)”, the “B lymphocyte (human) IgE” value is given as “•”.

Still in this assay, the particulars now being: Table 5, 1 μg/mL for 24 hours, then LPS 0.1 μg/mL 24 hours, vs positive control.
“Z15mer-1: ZAG3-derived oligopeptide, SEQ ID NO. 23: EDWKQDSQLQKARED (ZAG protein-derived peptide)”: the “B lymphocyte (human) IgE” value is reported as “•”.
With “Z15mer-2: ZAG3-derived oligopeptide, SEQ ID NO. 24: DSQLQKAREDIFMET (ZAG protein-derived peptide)”, the “B lymphocyte (human) IgE” value is recorded as “•”.
As to “Z20mer-1: ZAG3-derived oligopeptide, SEQ ID NO. 20: EDWKQDSQLQKAREDIFMET (ZAG protein-derived peptide)”, the “B lymphocyte (human) IgE” value is recorded as “•”.

For another assay, the system named is Histamine. In words: Atopic dermatitis efficacy test using mast cells (RBL-2H3): histamine released after PMA and A23187, ELISA. More on the design: key: •: have statistical significance, determining as effective, compared with the positive control. The conditions noted are these: Table 3; 1 μg/mL for 24 hours, then PMA 1 μg/mL, A23187 1 μg/mL 12 hours; vs stimulator only. Format: cell-based, rat. How it is done: as §1
Mast cells (RBL-2H3) were treated with 1 μg/mL of PMA and 1 μg/mL of A23187 as stimulators for 12 hours, and a concentration of histamine released in a cell culture medium was confirmed by ELISA assay.
as §2, §3
Mast cells (RBL-2H3) were treated with 1 μg/mL of PMA and 1 μg/mL of A23187 as simulators for 12 hours, and then a concentration of histamine released in a cell culture medium was confirmed by ELISA assay. As compared with the positive control (Pos), in all of the oligopeptide-treated groups, the histamine release was reduced (FIG. 2B).
Regarding “Z17: ZAG protein-derived peptide, SEQ ID NO. 17: QEPELRGDVLHNGNGTYQSWVVVAVPPQDT (ZAG protein-derived peptide)”, the “RBL-2H3 (rat) Histamine” value was “•”.
Consider “Z18: ZAG protein-derived peptide, SEQ ID NO. 18: AVPPQDTAPYSCHVQHSSLAQPLVVPWEAS (ZAG protein-derived peptide)”, for which the “RBL-2H3 (rat) Histamine” value is reported as “•”.

Still in this assay, the particulars now being: Table 5; 1 μg/mL for 24 hours, then PMA 1 μg/mL, A23187 1 μg/mL 12 hours; vs positive control.
For the substance “Z15mer-1: ZAG3-derived oligopeptide, SEQ ID NO. 23: EDWKQDSQLQKARED (ZAG protein-derived peptide)”, the “RBL-2H3 (rat) Histamine” value is recorded as “•”.
Consider “Z15mer-2: ZAG3-derived oligopeptide, SEQ ID NO. 24: DSQLQKAREDIFMET (ZAG protein-derived peptide)”, for which the “RBL-2H3 (rat) Histamine” value is “•”.
As to “Z20mer-1: ZAG3-derived oligopeptide, SEQ ID NO. 20: EDWKQDSQLQKAREDIFMET (ZAG protein-derived peptide)”, the “RBL-2H3 (rat) Histamine” value is given as “•”.

In another assay the test system is CCL17/TARC. Put plainly: Atopic dermatitis efficacy test using keratinocytes (HaCaT): CCL17/TARC released after TNF-α and IFN-γ, ELISA. More on the design: key to HaCaT (human) CCL17/TARC: •: have statistical significance, determining as effective, compared with the positive control. Conditions: Example 2-3, FIG. 2C; HaCaT; 1 μg/mL 24 hours, TNF-α 0.4 μg/mL and IFN-γ 0.4 μg/mL 24 hours; compared with positive control (Pos). Format: cell-based, human. How it is done: as §1
Keratinocytes (HaCaT cells) were treated with 0.4 μg/mL of TNF-α and 0.4 μg/mL of IFN-γ as stimulators for 24 hours, and then a concentration of CCL17/TARC released in a cell culture medium was confirmed by ELISA assay.
as §2, §3
For “Z20mer-1: ZAG3-derived oligopeptide, SEQ ID NO. 20: EDWKQDSQLQKAREDIFMET (ZAG protein-derived peptide)”, the “CCL17/TARC concentration released in cell culture medium” value is “significantly decreased”.

Staying with this assay, now noted: Table 3; 1 μg/mL for 24 hours, then TNF-α 0.4 μg/mL, IFN-γ 0.4 μg/mL 24 hours; vs stimulator only.
For “Z12: ZAG protein-derived peptide, SEQ ID NO. 12: PFDPAAQITKQKWEAEPVYVQRAKAYLEEE (ZAG protein-derived peptide)”, the “HaCaT (human) CCL17/TARC” value is “•”.
On the same count and under the same terms, next, “Z13: ZAG protein-derived peptide, SEQ ID NO. 13: CPATLRKYLKYSKNILDRQDPPSVVVTSHQ (ZAG protein-derived peptide)”: “•”; “Z18: ZAG protein-derived peptide, SEQ ID NO. 18: AVPPQDTAPYSCHVQHSSLAQPLVVPWEAS (ZAG protein-derived peptide)”: “•”.

Staying with this assay, now noted: Table 5; 1 μg/mL for 24 hours, then TNF-α 0.4 μg/mL, IFN-γ 0.4 μg/mL 24 hours; vs positive control.
Regarding “Z20mer-1: ZAG3-derived oligopeptide, SEQ ID NO. 20: EDWKQDSQLQKAREDIFMET (ZAG protein-derived peptide)”, the “HaCaT (human) CCL17/TARC” value is given as “•”.

The next assay relates to IL-4. In words: Atopic dermatitis efficacy test using T lymphocytes: IL-4 released after IL-2, ELISA. It is filed as cell-based, human. More on the design: key to T lymphocyte (human) IL-4: •: have statistical significance, determining as effective, compared with the positive control. Conditions: Example 1-5, FIG. 1E; T lymphocytes; 1 μg/mL 24 hours, IL-2 50 ng/mL 12 hours. How it is done:
as §1
An atopic dermatitis efficacy test using T lymphocytes was performed with six peptide candidate groups (Z3, Z4, Z5, Z12, Z14, and Z15), which were determined to have efficacy from the results of Examples 1-1 to 1-4 described above. T lymphocytes were treated with 50 ng/mL of IL-2 as a stimulator for 12 hours, and a concentration of IL-4 released in a cell culture medium was confirmed by ELISA assay.
as §2, §3
An experiment was performed on T lymphocytes using the target peptides selected through the previous experiment. As compared with the positive control (Pos), in all of the oligopeptide-treated groups (Z20mer-1, Z20mer-2, Z20mer-3, Z15mer-1, Z15mer-2, Z15mer-3, and Z15mer-4), IL-4 was reduced (FIG. 2E).
On to “Z12: ZAG protein-derived peptide, SEQ ID NO. 12: PFDPAAQITKQKWEAEPVYVQRAKAYLEEE (ZAG protein-derived peptide)”, for which the “IL-4 concentration released in cell culture medium” value is “significantly decreased”.

The same assay, now with this note: Example 2-5, FIG. 2E; T lymphocytes; 1 μg/mL 24 hours; compared with positive control (Pos).
With “Z15mer-1: ZAG3-derived oligopeptide, SEQ ID NO. 23: EDWKQDSQLQKARED (ZAG protein-derived peptide)”, the IL-4 entry was “reduced”.
On to “Z15mer-2: ZAG3-derived oligopeptide, SEQ ID NO. 24: DSQLQKAREDIFMET (ZAG protein-derived peptide)”, for which the IL-4 entry is recorded as “reduced”.
On the same count and under the same terms, next, “Z20mer-1: ZAG3-derived oligopeptide, SEQ ID NO. 20: EDWKQDSQLQKAREDIFMET (ZAG protein-derived peptide)”: “reduced”.

Staying with this assay, now noted: Table 3; 1 μg/mL for 24 hours, then IL-2 50 ng/mL 12 hours; vs stimulator only.
Turning to “Z12: ZAG protein-derived peptide, SEQ ID NO. 12: PFDPAAQITKQKWEAEPVYVQRAKAYLEEE (ZAG protein-derived peptide)”, the “T lymphocyte (human) IL-4” value is “•”.
Consider “Z16: ZAG protein-derived peptide, SEQ ID NO. 16: APGEKKKLKCLAYDFYPGKIDVHWTRAGEV (ZAG protein-derived peptide)”, for which the “T lymphocyte (human) IL-4” value is listed as “•”.

Staying with this assay, now noted: Table 5; 1 μg/mL for 24 hours, then IL-2 50 ng/mL 12 hours; vs positive control.
In the case of “Z15mer-1: ZAG3-derived oligopeptide, SEQ ID NO. 23: EDWKQDSQLQKARED (ZAG protein-derived peptide)”, the “T lymphocyte (human) IL-4” value was “•”.
For the substance “Z15mer-2: ZAG3-derived oligopeptide, SEQ ID NO. 24: DSQLQKAREDIFMET (ZAG protein-derived peptide)”, the “T lymphocyte (human) IL-4” value was “•”.
Turning to “Z20mer-1: ZAG3-derived oligopeptide, SEQ ID NO. 20: EDWKQDSQLQKAREDIFMET (ZAG protein-derived peptide)”, the “T lymphocyte (human) IL-4” value is reported as “•”.

For a further assay, the system named is IL-6. In words: Atopic dermatitis efficacy test using macrophages (RAW 264.7): IL-6 released after LPS, ELISA. Format: cell-based, mouse. More on the design: key to RAW 264.7 (mouse) IL-6: •: have statistical significance, determining as effective, compared with the positive control. Conditions: Example 2-1, FIG. 2A; RAW 264.7; 1 μg/mL 24 hours, LPS 0.1 μg/mL 24 hours; compared with positive control (Pos). How it is done:
as §1
Macrophages (RAW 264.7 cells) were treated with a stimulator LPS at a concentration of 0.1 μg/mL for 24 hours, and then the concentration of IL-6 released in a cell culture medium was confirmed by ELISA assay.
as §2, §3
Macrophages (RAW 264.7 cells) were treated with a stimulator LPS at a concentration of 0.1 μg/mL for 24 hours, and then a concentration of IL-6 released in a cell culture medium was confirmed by ELISA assay.
On to “Z15mer-1: ZAG3-derived oligopeptide, SEQ ID NO. 23: EDWKQDSQLQKARED (ZAG protein-derived peptide)”, for which the “IL-6 concentration released in cell culture medium” value is “significantly decreased”.
As for “Z15mer-2: ZAG3-derived oligopeptide, SEQ ID NO. 24: DSQLQKAREDIFMET (ZAG protein-derived peptide)”, the “IL-6 concentration released in cell culture medium” value is “significantly decreased”.

The assay is the same for the next values; noted with them: Table 5; 1 μg/mL for 24 hours, then LPS 0.1 μg/mL 24 hours; vs positive control.
As to “Z15mer-1: ZAG3-derived oligopeptide, SEQ ID NO. 23: EDWKQDSQLQKARED (ZAG protein-derived peptide)”, the “RAW 264.7 (mouse) IL-6” value is “•”.
With “Z15mer-2: ZAG3-derived oligopeptide, SEQ ID NO. 24: DSQLQKAREDIFMET (ZAG protein-derived peptide)”, the “RAW 264.7 (mouse) IL-6” value was “•”.
